One may read the TGI as the concentration at which net growth stops. A low value points to greater sensitivity of the cells.

Our source for the TGI values is PubChem BioAssay (NCI).

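Compound exposure: 48 hours, 5 concentrations, 96-well plates. The concentration for full growth arrest is given as TGI.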

Among the test systems are ACHN renal; COLO 205 colon; HCT-116 colon; HCC-2998 colon; MCF7 breast; T-47D breast; HOP-62 NSCLC; K-562 leukemia; OVCAR-4 ovarian.
What all share (test): DTP human tumour cell line panel, 48 h

As for `O=c1cc(N2CCOCC2)n2c(ccc3ccccc32)n1`, the total growth inhibition concentration (TGI) with ACHN renal, with COLO 205 colon, in the assay on HCT-116 colon, in the assay on HCC-2998 colon, with MCF7 breast and with T-47D breast was > 100 µM throughout. Besides, the concentration for total growth inhibition (TGI) in the assay on HOP-62 NSCLC and in the assay on K-562 leukemia was > 100 µM in each case.
With `C/C(=C\Cc1ccc(F)cc1)CCCCCC/C(C)=C/Cc1ccc(F)cc1`, the total growth inhibition concentration (TGI) is 34.2 µM in the assay with OVCAR-4 ovarian; 24.8 µM in the assay on ACHN renal; 37.6 µM in the assay with COLO 205 colon; 33 µM in the assay on HCT-116 colon; 45.8 µM in the assay on MCF7 breast; 37.2 µM in the assay with HOP-62 NSCLC. Further, the TGI in the assay on K-562 leukemia was found to be 28.5 µM.
With `COc1c(C)c(C/C=C(\C)CCCC(C)CCCC(C)CCCC(C)C)c(OC)c2ccccc12` (stereo not drawn), the concentration for total growth inhibition (TGI) in the assay on OVCAR-4 ovarian, in the assay on ACHN renal, in the assay with COLO 205 colon, with HCT-116 colon, in the assay with HCC-2998 colon and with MCF7 breast was > 100 µM each time. In addition, the TGI with K-562 leukemia is > 100 µM.
`N/N=C(/N)SCCCCCCCCCCS/C(N)=N/N`: the TGI was 67.4 µM in the assay with ACHN renal; 27.7 µM in the assay with COLO 205 colon; > 100 µM with HCT-116 colon; 59.6 µM in the assay with HCC-2998 colon; 64.4 µM in the assay on MCF7 breast; 35.4 µM with T-47D breast. Besides, the total growth inhibition concentration (TGI) is > 100 µM in the assay with HOP-62 NSCLC and 32.3 µM in the assay on K-562 leukemia.
For `O=S(=O)(/N=S(/Nc1ccccc1)C(F)(F)Cl)c1ccccc1` (stereo not drawn), the TGI with OVCAR-4 ovarian, in the assay with ACHN renal, with COLO 205 colon, in the assay on HCT-116 colon, with MCF7 breast and in the assay with T-47D breast was > 100 µM each time. For the same molecule, the TGI with HOP-62 NSCLC and in the assay with K-562 leukemia was > 100 µM each time.
As for `COc1ccc(/C=C2\CCCc3ccccc3C2=O)cc1`, the total growth inhibition concentration (TGI) is > 100 µM in the assay on OVCAR-4 ovarian; > 100 µM in the assay with ACHN renal; 0.557 µM with COLO 205 colon; 20.5 µM in the assay with HCT-116 colon; 28.2 µM in the assay with HCC-2998 colon; 99.2 µM in the assay with MCF7 breast. Further, the concentration for total growth inhibition (TGI) was 76.7 µM with HOP-62 NSCLC and > 100 µM with K-562 leukemia.
For `COc1cccc(C(C#N)NNC(=O)c2c(Cl)c(Cl)c(Cl)c(Cl)c2-c2nc3ccc(C(=O)c4ccccc4)cc3[nH]2)c1O` (stereo not drawn), the TGI in the assay on OVCAR-4 ovarian, with ACHN renal, in the assay on COLO 205 colon, with HCT-116 colon, with MCF7 breast and with T-47D breast was > 100 µM each time. Also, the TGI in the assay on HOP-62 NSCLC was 8.59 µM; in the assay with K-562 leukemia, > 100 µM.
For `COc1ccc(/C=c2\[nH]c3nc(=O)c(N4CCCCC4)c(N)n3c2=O)cc1`, the TGI in the assay on OVCAR-4 ovarian, in the assay on ACHN renal, with COLO 205 colon, in the assay with HCT-116 colon, with HCC-2998 colon and in the assay with MCF7 breast was > 100 µM in each case. Also, the TGI with T-47D breast and in the assay on K-562 leukemia was > 100 µM throughout.
Turning to `COC(=O)c1c2c(cc3c1CC1(Cc4cc5c(c(C)c4C1)CCC5)C3)CCC2` (stereo not drawn), the TGI in the assay with OVCAR-4 ovarian, in the assay on ACHN renal, in the assay on HCT-116 colon, in the assay on HCC-2998 colon, in the assay with MCF7 breast and in the assay with T-47D breast was > 100 µM in each case. Besides, the TGI in the assay on HOP-62 NSCLC and with K-562 leukemia was > 100 µM each time.
Turning to `Oc1c(Cl)cc2cc1-c1cc(cc(Cl)c1O)CCc1c(cc(Cl)c(O)c1Cl)-c1cc(Cl)c(c(Cl)c1O)/C=C\2`, the concentration for total growth inhibition (TGI) in the assay with OVCAR-4 ovarian came to 24 µM; in the assay with ACHN renal it was 29.7 µM; in the assay on COLO 205 colon, 16.4 µM; in the assay with HCT-116 colon it was 15.3 µM; with HCC-2998 colon it was 13.9 µM; with T-47D breast it was 19.2 µM. Besides, the results for the TGI in the assay on HOP-62 NSCLC and with K-562 leukemia were 16 µM and > 50 µM, respectively.
In the case of `C=CC(C)(C)/C=C/c1ccc(O)cc1`, the concentration for total growth inhibition (TGI) in the assay with OVCAR-4 ovarian is > 100 µM; in the assay on ACHN renal, > 100 µM; in the assay with COLO 205 colon, > 100 µM; with HCT-116 colon it was > 100 µM; with HCC-2998 colon, 79.9 µM; in the assay on MCF7 breast, > 100 µM. Moreover, the concentration for total growth inhibition (TGI) with T-47D breast is 95 µM; in the assay on HOP-62 NSCLC it was > 100 µM.
Consider `CC(C)[C@H](C)/C=C/[C@@H](C)C1CC[C@H]2[C@@]34C=C[C@]5(C[C@@H](O)CC[C@]5(C)[C@H]3CC[C@]12C)OO4` (stereo partly drawn), for which the concentration for total growth inhibition (TGI) was > 100 µM with OVCAR-4 ovarian; > 100 µM with ACHN renal; > 100 µM in the assay on COLO 205 colon; 42.8 µM with HCT-116 colon; 50.9 µM in the assay on HCC-2998 colon; > 100 µM with MCF7 breast. Further, the TGI in the assay with T-47D breast and in the assay on HOP-62 NSCLC was > 100 µM throughout.
`Cc1nc2ccc(Br)cc2c(=O)n1-c1ccc(N)cc1`: the TGI in the assay with OVCAR-4 ovarian, in the assay with ACHN renal, with COLO 205 colon, with HCT-116 colon, in the assay on HCC-2998 colon and with MCF7 breast was > 100 µM each time. Also, the TGI in the assay on HOP-62 NSCLC and in the assay on K-562 leukemia was > 100 µM throughout.
Turning to `Cc1cc(S(=O)(=O)Nc2nc3cscc3c(=O)n2N)c(S)cc1Cl`, the TGI in the assay on OVCAR-4 ovarian, in the assay on ACHN renal, in the assay with COLO 205 colon, in the assay on HCT-116 colon, in the assay with HCC-2998 colon and in the assay with MCF7 breast was > 100 µM throughout. Besides, the concentration for total growth inhibition (TGI) in the assay on HOP-62 NSCLC and in the assay on K-562 leukemia was > 100 µM each time.
`O=C1Nc2cccc(Cl)c2/C1=C\c1c(-c2ccccc2)nc2n1CCS2`: the TGI amounted to 32.3 µM in the assay on ACHN renal; 39.5 µM with COLO 205 colon; 54.6 µM in the assay on HCT-116 colon; 46.7 µM with HCC-2998 colon; 39.1 µM in the assay on MCF7 breast; 48.9 µM in the assay on T-47D breast. The concentration for total growth inhibition (TGI) amounted to 66.1 µM in the assay on HOP-62 NSCLC and 55.1 µM in the assay on K-562 leukemia.
